Article PMC8021898 (Frontiers in Pharmacology, 2021)
In brackets after ≈: the same amount, converted by molar mass. Several values for one entry are separate records, joined by “and”; a condition that tells them apart may be missing. Identical values can stand only once. Like-named read-outs stand apart in the source and are kept apart here.

Tests used:
[1] = for Css Free drug Concentration (mass/volume) / Css Free drug Concentration (molarity): approximately 20% protein bound
SARS-CoV-2 = assay: microbe, parasite or virus in culture; type: cell-based; settings: for IC50: read-out: Antiviral: IC50; for IC90: read-out: Antiviral: IC90; for inhibition of SARS-CoV-2 infection: Vero E6 cell-based assay
human sigma-1 receptor = human sigma-1 receptor (Homo sapiens, UniProt Q99720); settings: concentrations up to 10 μM
human sigma-1 receptor, sequence (Q99720 whole entry): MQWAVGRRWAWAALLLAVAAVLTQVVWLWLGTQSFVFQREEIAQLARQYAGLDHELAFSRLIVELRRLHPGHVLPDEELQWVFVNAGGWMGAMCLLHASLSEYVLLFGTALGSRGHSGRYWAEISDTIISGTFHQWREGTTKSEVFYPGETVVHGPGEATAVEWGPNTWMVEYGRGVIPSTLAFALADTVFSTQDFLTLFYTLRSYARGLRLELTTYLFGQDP
Procedure: All reactions were performed in triplicate using a 96-well block. […] Data were analyzed using GraphPad Prism software.

human sigma-2 (TMEM97) = human sigma-2 (TMEM97) (Homo sapiens, UniProt Q5BJF2); settings: concentrations up to 10 μM
human sigma-2 (TMEM97), sequence (Q5BJF2 whole entry): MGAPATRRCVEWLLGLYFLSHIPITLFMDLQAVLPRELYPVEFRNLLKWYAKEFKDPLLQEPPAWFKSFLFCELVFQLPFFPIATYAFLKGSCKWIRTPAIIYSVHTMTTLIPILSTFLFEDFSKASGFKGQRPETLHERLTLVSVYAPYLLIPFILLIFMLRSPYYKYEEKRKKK
Procedure: Sigma-2 competition curves were performed in a similar manner, using Expi293 cells overexpressing the human sigma-2 (TMEM97) and using [^3H] DTG as the radioactive probe.

H2 [2] = biological target: T1, H2 (Homo sapiens, UniProt P25021); assay: biochemical; settings: affinity (Ki) for histamine H2 receptor
T1 sequence (P25021 whole entry): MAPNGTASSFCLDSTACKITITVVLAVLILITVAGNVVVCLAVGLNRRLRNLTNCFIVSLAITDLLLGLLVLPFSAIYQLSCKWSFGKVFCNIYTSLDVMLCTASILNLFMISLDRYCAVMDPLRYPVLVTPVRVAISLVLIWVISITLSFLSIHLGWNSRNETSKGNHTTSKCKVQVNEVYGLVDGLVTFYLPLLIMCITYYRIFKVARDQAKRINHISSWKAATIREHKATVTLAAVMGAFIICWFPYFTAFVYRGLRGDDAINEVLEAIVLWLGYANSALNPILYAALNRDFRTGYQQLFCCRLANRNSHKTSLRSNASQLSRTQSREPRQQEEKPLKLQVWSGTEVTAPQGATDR
Procedure: Radioligand binding assays with human histamine receptors. Radioligand binding assays with human H1, H2, H3, and H4 receptors were conducted according to the NIMH PDSP assay protocol (https://pdsp.unc.edu/pdspweb/?site=assays) and published procedures ([Besnard et al., 2012]).

H2 [3] = biological target: T1, H2; assay: cell-based
Procedure: cAMP production was determined in transiently transfected HEK293T cells ([Stauch et al., 2019]) with minor modifications. In brief, HEK293 T cells were co-transfected with H2 and GloSensor cAMP reporter DNA (Promega) overnight and plated in poly-l-lysine coated clear bottom 384-well white plate at a density of 15,000 cells/well in 40 ul of DMEM supplemented with 1% dialyzed FBS for 6 h. Medium was removed and cells were loaded with 3 mM luciferin in drug buffer (20 ul/well, 1x HBSS, 20 mM HEPES, pH 7.40) for 30 min. Test compounds were prepared in the same drug buffer supplemented with 1 mg/ml BSA and added (20 ul/well at 2x) to cells. Luminescence was counted after 20 min and results were analyzed in Prism 8.4.

318 known human GPCRs = settings: 10 microM final; threshold >3x basal; follow up studies
Procedure: (§1) Human G-coupled Protein Receptor genome (GPCRome) screening was carried out according to published procedure ([Kroeze et al., 2015]) with minor modifications. In brief, HTLA cells were subcultured into poly-L-lysine coated clear bottom 384-well white plates at a density of 6,000 cells/well in 40 ul of DMEM supplemented with 1% dialyzed FBS for overnight, transfected with 20 ng/well Tango constructs for 24 h, received drug stimulation (10 uM final) for another 24 h. Medium and drug solutions were removed and Bright-Glo Reagents (Promega) were added for luminescence counting. For concentration response assays, HTLA cells were transfected with Tango constructs for 24 h, plated in poly-L-Lysine coated clear bottom 384-well white plates at a density of 10,000 cells/well in 40 ul of DMEM supplemented with 1% dialyzed FBS for 6 h before receiving drugs for overnight stimulation. Plates were then counted as above.

bradykinin receptor B1 = bradykinin receptor B1 (Homo sapiens, UniProt P46663); settings: quadruplicate replicate
bradykinin receptor B1, sequence (P46663 whole entry): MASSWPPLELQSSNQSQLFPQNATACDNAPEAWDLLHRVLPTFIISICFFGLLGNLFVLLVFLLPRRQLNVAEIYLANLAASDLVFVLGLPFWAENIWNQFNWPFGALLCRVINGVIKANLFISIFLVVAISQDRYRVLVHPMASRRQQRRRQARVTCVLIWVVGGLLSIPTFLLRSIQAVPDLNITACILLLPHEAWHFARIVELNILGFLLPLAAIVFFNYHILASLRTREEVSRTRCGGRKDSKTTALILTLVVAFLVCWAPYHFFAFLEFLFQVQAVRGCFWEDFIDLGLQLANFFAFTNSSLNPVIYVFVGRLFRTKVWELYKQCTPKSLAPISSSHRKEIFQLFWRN
Procedure: as §1

bradykinin receptor B2 = bradykinin receptor B2 (Homo sapiens, UniProt P30411); settings: quadruplicate replicate
bradykinin receptor B2, sequence (P30411 whole entry): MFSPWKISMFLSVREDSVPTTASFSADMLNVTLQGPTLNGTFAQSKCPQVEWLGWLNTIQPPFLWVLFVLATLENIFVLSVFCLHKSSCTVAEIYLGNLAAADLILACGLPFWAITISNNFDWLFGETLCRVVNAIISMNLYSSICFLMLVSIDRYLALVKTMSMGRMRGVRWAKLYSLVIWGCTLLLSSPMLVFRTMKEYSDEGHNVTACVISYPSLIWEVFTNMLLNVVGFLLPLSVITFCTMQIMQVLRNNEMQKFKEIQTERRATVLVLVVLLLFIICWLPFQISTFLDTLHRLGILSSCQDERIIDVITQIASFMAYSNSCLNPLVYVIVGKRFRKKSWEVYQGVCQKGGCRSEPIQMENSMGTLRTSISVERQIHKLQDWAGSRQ
Procedure: as §1

histamine H2 receptor [4] = biological target: T2, histamine H2 receptor (Homo sapiens, UniProt P25021); settings: partial agonist
T2 sequence (P25021 whole entry): as the sequence (P25021 whole entry) above

COVID-19 patient = settings: one patient, 60 mg p.o. t.i.d. for 30 days, started day 8 of symptoms; anecdotal
in vitro = settings: African green monkey
histamine H2 receptor [5] = biological target: T2, histamine H2 receptor; assay: cell-based
histamine H2 receptor [6] = settings: cited from earlier work
[7] = tested on: H2 in primary human neutrophils; settings: ref Reher et al., 2012, cited from earlier work
[8] = tested on: H2 in primary human neutrophils; settings: ref Reher et al., 2012, cited from earlier work; remark: listed apart in the source
[9] = tested on: H2 in primary human eosinophils; settings: ref Reher et al., 2012, cited from earlier work
human skin mast cells = settings: 10 μM pre-incubation; ref Lippert et al., 2004; cited from earlier work
[10] = tested on: hospitalized COVID-19 patients; settings: ref Cheung et al., 2020, Shoaibi et al., Yeramaneni et al.; cited from earlier work
[11] = MTT cytotoxicity assay in uninfected Vero E6 cells; settings: African green monkey, uninfected Vero E6 cells
Vero E6 cells = assay: MTT cytotoxicity assay in uninfected Vero E6 cells; settings: uninfected Vero E6, MTT
[12] = Severe acute respiratory syndrome coronavirus 2, Vero C1008, Vero E6, 48 h, MOI 0.025
[13] = 40 mg tablet p.o. t.i.d., pK data reported by Lin et al. (1987)
[14] = 40 mg tablet p.o. t.i.d., pK data reported by Yeh et al. (1987)
[15] = Severe acute respiratory syndrome coronavirus 2, Vero C1008, 48 h

In the case of `CN/C(=N/CCSCc1nc[nH]c1C)NC#N` [Cimetidine], the “Css Free drug Concentration (mass/volume)” value ([1]; 200 mg tablet p.o. q.d.) is reported as 140 µg/L, the “Css Free drug Concentration (mass/volume)” value ([1]; 300 mg tablet p.o. q.d.) is reported as 180.1 µg/L and the “Css Free drug Concentration (molarity)” value ([1]; 300 mg tablet p.o. q.d.) is reported as 720 nM.
For `NC(N)=Nc1nc(CSCCC(N)=NS(N)(=O)=O)cs1` [Famotidine], the IC50 (SARS-CoV-2; [12]) was greater than 100000 nM, the IC90 (SARS-CoV-2; [12]) was greater than 100000 nM and the “inhibition of SARS-CoV-2 infection” value (SARS-CoV-2) was “no inhibition”. For the same molecule, the “displacement of radioligand probe, sigma-1” value (human sigma-1 receptor) was “no detectable displacement”, the “displacement of radioligand probe, sigma-2” value (human sigma-2 (TMEM97)) was “no detectable displacement” and the Ki (H2 [2]) was ~14 nM and 14 nM. For the same molecule, the EC50 (H2 [3]) was 33 nM, the “activity on H2 in the presence of histamine” value (H2 [3]; Figure 4B) was “antagonist activity” and the “inverse agonist activity, reduction of basal activity” value (H2 [3]; cAMP, H2) was 75%. For the same molecule, the “agonist activity at GPCRs other than H2” value (318 known human GPCRs) was “no agonist activity”, the “activation of bradykinin receptor B1” value (bradykinin receptor B1) was “no activation” and the “activation of bradykinin receptor B2” value (bradykinin receptor B2) was “no activation”. The arrestin recruitment efficacy (histamine H2 receptor [4]) was “about 15 % that of histamine”, the “Css Free drug Concentration (mass/volume)” value ([1]; 20 mg capsule p.o. b.i.d.) was 29.4 µg/L and the “Css Free drug Concentration (molarity)” value ([1]; 20 mg capsule p.o. b.i.d.) was 87 nM. For the same molecule, the “Css Free drug Concentration (mass/volume)” value ([1]; 20 mg capsule p.o. q.d.) was 14.7 µg/L, the “Css Free drug Concentration (molarity)” value ([1]; 20 mg capsule p.o. q.d.) was 44 nM and the “Css Free drug Concentration (mass/volume)” value ([1]; 20 mg capsule p.o. t.i.d.) was 44.2 µg/L. The “Css Free drug Concentration (molarity)” value ([1]; 20 mg capsule p.o. t.i.d.) was 131 nM, the “Css Free drug Concentration (mass/volume)” value ([1]; 20 mg tablet p.o. b.i.d.) was 28.3 µg/L and the “Css Free drug Concentration (molarity)” value ([1]; 20 mg tablet p.o. b.i.d.) was 84 nM. The “Css Total Concentration (mass/volume)” value ([1]; 20 mg tablet p.o. q.d.) was 53 nM, the “Css Free drug Concentration (mass/volume)” value ([1]; 20 mg tablet p.o. q.d.) was 14.2 µg/L and the “Css Free drug Concentration (molarity)” value ([1]; 20 mg tablet p.o. q.d.) was 42 nM. The “Css Free drug Concentration (mass/volume)” value ([1]; 20 mg tablet p.o. t.i.d.) was 42.5 µg/L, the “Css Free drug Concentration (molarity)” value ([1]; 20 mg tablet p.o. t.i.d.) was 126 nM and the “Css Free drug Concentration (mass/volume)” value [1, 13] was 44.3 µg/L. For the same molecule, the “Css Free drug Concentration (molarity)” value [1, 13] was 131 nM, the “Css Free drug Concentration (mass/volume)” value [1, 14] was 64.6 µg/L and the “Css Free drug Concentration (molarity)” value [1, 14] was 192 nM. The “Css Free drug Concentration (mass/volume)” value ([1]; 60 mg tablet p.o. t.i.d.) was 115.4 µg/L, the “Css Free drug Concentration (molarity)” value ([1]; 60 mg tablet p.o. t.i.d.) was 340 nM and the “Css Free drug Concentration (mass/volume)” value ([1]; 120 mg IV every 8 h) was 1,032 μg/l. The “Css Free drug Concentration (molarity)” value ([1]; 120 mg IV every 8 h) was 874 nM, the “clinical symptoms after initiating treatment” value (COVID-19 patient) was “relief of symptoms overnight” and the CC50 (in vitro) was greater than 100000 nM. For the same molecule, the EC50 (histamine H2 receptor [5]) was 105 nM, the IC50 (histamine H2 receptor [6]; read-out: IC50 Histamine H2, Concentration (molarity), ref Lin et al., 1987, 1991) was 39 nM and the “IC50 Histamine H2, Concentration (mass/volume)” value (histamine H2 receptor [6]; ref Lin et al., 1987, 1991) was 0.013 µg/mL (≈ 0.0385 µM). The IC50 ([7]; read-out: IC50 Neutrophil H2 O2- assay, Concentration (molarity)) was 201 nM, the “IC50 Neutrophil H2 O2- assay, Concentration (mass/volume)” value [7] was 0.067 µg/mL (≈ 0.199 µM) and the IC50 ([8]; read-out: IC50 Neutrophil H2 cAMP assay, Concentration (molarity)) was 24 nM. For the same molecule, the “IC50 Neutrophil H2 cAMP assay, Concentration (mass/volume)” value [8] was 0.008 µg/mL (≈ 0.0237 µM), the IC50 ([9]; read-out: IC50 Eosinophil H2 cAMP assay, Concentration (molarity)) was 158 nM and the “IC50 Eosinophil H2 cAMP assay, Concentration (mass/volume)” value [9] was 0.0536 µg/mL (≈ 0.159 µM). For the same molecule, the “effect on histamine-induced cAMP increase” value (human skin mast cells) was “blocks histamine-induced cAMP increase” and the “effect in more recent retrospective studies” value [10] was “no effect”.
In the case of `CCN(CCO)CCCC(C)Nc1ccnc2cc(Cl)ccc12` (stereo not shown) [Hydroxychloroquine], the IC50 (SARS-CoV-2; [15]) is reported as 1440 nM, the IC90 (SARS-CoV-2; [15]) is reported as 3470 nM and the “inhibition of SARS-CoV-2 infection” value (SARS-CoV-2) is reported as “demonstrated antiviral activity”. For the same molecule, the CC50 at 48 h [11] was greater than 20000 nM and the “Cytotoxicity: CC10” value (Vero E6 cells) was 216 nM.
In the case of `CCC(CC)COC(=O)[C@H](C)N[P@](=O)(OC[C@H]1O[C@@](C#N)(c2ccc3c(N)ncnn23)[C@H](O)[C@@H]1O)Oc1ccccc1` [Remdesivir], the IC50 (SARS-CoV-2; [15]) is reported as 966 nM, the IC90 (SARS-CoV-2; [15]) is reported as 1770 nM and the “inhibition of SARS-CoV-2 infection” value (SARS-CoV-2) is reported as “demonstrated antiviral activity”. For the same molecule, the CC50 (in vitro) was greater than 20000 nM and the “Cytotoxicity: CC10” value (Vero E6 cells) was greater than 20000 nM.
For `NCCc1c[nH]cn1` [histamine], the “stimulation of cAMP production” value (H2 [3]; N = 2) was 20 fold of basal.
